Tests used:
human neutrophils = assay: Human neutrophil migration assay; format: cell-based; conditions: for IC50: Homo sapiens, Neutrophil, embelin at EC80 as chemotactic agent, 1 h at 37° C., read-out: Human neutrophil migration IC50
Summary of the method: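 Neutrophils freshly isolated from human buffy coats by dextran sedimentation and hypotonic lysis were preincubated with compound for 30 min at room temperature. Chemotaxis then ran in a Transwell system for 1 h at 37° C, 5% CO2. Migrated cells in the lower well were quantified by ATPlite luminescence.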

GPR84 [1] = biological target: T1, GPR84 (Homo sapiens, UniProt Q9NQS5); conditions: literature; cited from earlier work
T1 construct: expressed in transfected cells

GPR84 [2] = biological target: T1, GPR84; assay: GPR84 [35S]GTPγS binding assay; format: biochemical; conditions: 3,3′-diindolylmethane at EC80; membranes from stable cell line over expressing GPR84
Summary of the method: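 Antagonist-mode [35S]GTPγS binding on membranes from a GPR84-overexpressing stable line (GDP-preincubated), stimulated with 3,3′-diindolylmethane at EC80. Buffer 20 mM Tris pH 7.5, 5 mM MgCl2, 250 mM NaCl, saponin; 0.1 nM [35S]GTPγS, 90 min at room temperature, SPA bead read-out.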

[3] = Chemical stability in aqueous solutions with different pH; format: physicochemical; conditions: 2 μM; for % rem. (2 h) pH 1.2 / % rem. (24 h) pH 1.2: pH 1.2 hydrochloric acid buffer; for % rem. (2 h) pH 1.2 / % rem. (2 h) pH 5.0 / % rem. (2 h) pH 7.4 / % rem. (2 h) pH 9.0: 2 h incubation at 37° C.; for % rem. (24 h) pH 1.2 / % rem. (24 h) pH 5.0 / % rem. (24 h) pH 7.4 / % rem. (24 h) pH 9.0: 24 h incubation at 37° C.; for % rem. (2 h) pH 5.0 / % rem. (24 h) pH 5.0: pH 5.0 acetate buffer; for % rem. (2 h) pH 7.4 / % rem. (24 h) pH 7.4: pH 7.4 phosphate buffer; for % rem. (2 h) pH 9.0 / % rem. (24 h) pH 9.0: pH 9.0 Tris buffer
Description: This in vitro model is aimed at assessing the stability of a test compound in aqueous solutions with different pH. The decrease in parent compound is assessed by measuring the percentage parent remaining after 2 and 24 h incubation at 37° C.
A 2 mM DMSO stock is made for each test compound starting from dry matter. Then a 80 μM working solution of compound in DMSO is made by diluting the 2 mM DMSO.
The 80 μM working solution is diluted to a final concentration of 2 μM-2.5% DMSO in buffer with the desired pH (pH 1.2: hydrochloric acid buffer, pH 5.0: acetate buffer, pH 7.4: phosphate buffer, pH 9.0: Tris buffer) in 96-well plates with glass inserts (Cat no. 548-0201/548-0202, VWR-Thermo Scientific). Two replicates are run for each buffer solution and each time point.
One set of vials is incubated for 24 h at 200 rpm and another for 2 h at 200 rpm. To stop the reaction after the respective incubation times, 4 volumes of acetonitrile containing the internal standard (stop solution) are added to the reaction solution and the vials are vortexed briefly.
For the 0 h incubation, the stop solution with internal standard is first added to the buffer solution in glass vials and then the working solution of test compound (final concentration: 2 μM-2.5% DMSO) is added.
Propranolol is used as internal standard, but if the mass difference is too low with the test compound(s), another product is selected as internal standard. The concentration of the internal standard is chosen to obtain a peak area half of the average peak area of the test compounds and control at time point 0.
Analysis is performed on an LCMS-MS system (API2000 or API4000). The average of the peak areas of the two replicates from the parent compound at time 0 divided by the peak area of the internal standard is considered to be 100% remaining. The percentage remaining after 2 and 24 h of incubation is calculated for all other peaks and the percentage remaining after 2 and 24 h is reported.

[4] = system: RAW264.7 murine macrophage-like cells; conditions: RAW264.7 cells stimulated with LPS; cited from earlier work

T1 sequence (Q9NQS5 whole entry): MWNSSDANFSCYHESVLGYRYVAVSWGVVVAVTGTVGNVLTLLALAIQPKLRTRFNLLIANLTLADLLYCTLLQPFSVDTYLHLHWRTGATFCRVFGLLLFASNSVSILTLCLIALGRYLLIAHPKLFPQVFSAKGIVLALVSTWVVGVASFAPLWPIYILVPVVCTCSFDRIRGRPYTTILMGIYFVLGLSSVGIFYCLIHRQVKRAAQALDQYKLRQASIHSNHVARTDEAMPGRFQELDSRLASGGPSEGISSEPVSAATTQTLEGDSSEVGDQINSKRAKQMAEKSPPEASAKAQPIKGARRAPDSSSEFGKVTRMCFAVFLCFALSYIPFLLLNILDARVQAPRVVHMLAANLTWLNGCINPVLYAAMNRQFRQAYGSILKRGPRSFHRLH

Row | IC50 (GPR84 [2]) [nM] | IC50 (human neutrophils) [nM] | % rem. (2 h) pH 1.2 [3] | % rem. (24 h) pH 1.2 [3] | % rem. (2 h) pH 5.0 [3] | % rem. (24 h) pH 5.0 [3] | % rem. (2 h) pH 7.4 [3] | % rem. (24 h) pH 7.4 [3] | % rem. (2 h) pH 9.0 [3] | % rem. (24 h) pH 9.0 [3] | SMILES | neutrophil chemotaxis induced by GPR84 agonists (human neutrophils) | GPR84 agonist activity (GPR84 [1]) | secretion of interleukin-12 p40 subunit (IL-12 p40) [4]
1 |  |  |  |  |  |  |  |  |  |  | c1ccc2c(Cc3c[nH]c4ccccc34)c[nH]c2c1 [3,3′-diindolylmethane, reference compound] | induce neutrophil chemotaxis | some GPR84 agonist activity | 
2 |  |  |  |  |  |  |  |  |  |  | CCCCCCCCNc1cc(=O)[nH]c(=O)[nH]1 [6-n-octylaminouracil] |  | some GPR84 agonist activity | 
3 | 100 to 500 | 100 to 500 | *** (>80%) | *** (>80%) | *** (>80%) | *** (>80%) | *** (>80%) | *** (>80%) | *** (>80%) | *** (>80%) | COc1cc2c(cc1OC)-c1c(C)c(=O)cc(OC[C@@H]3COCCO3)n1CC2 [Compound 1, 4-[[(2S)-1,4-dioxan-2-yl]methoxy]-9,10-dimethoxy-1-methyl-6,7-dihydrobenzo[a]quinolizin-2-one] |  |  | 
4 | 100 to 500 | 0.01 to 100 | *** (>80%) | *** (>80%) | *** (>80%) | *** (>80%) | *** (>80%) | *** (>80%) | *** (>80%) | *** (>80%) | Cc1c2n(c(NCC3CCCO3)cc1=O)CCc1cc(OCC(F)(F)F)ccc1-2 (centres unmarked) [Compound 8, 1-methyl-4-(tetrahydrofuran-2-ylmethylamino)-9-(2,2,2-trifluoroethoxy)-6,7-dihydrobenzo[a]quinolizin-2-one] |  |  | 
5 | 0.01 to 100 | 0.01 to 100 | *** (>80%) | *** (>80%) | *** (>80%) | *** (>80%) | *** (>80%) | *** (>80%) | *** (>80%) | *** (>80%) | COc1ccc2c(c1OC)CCn1c(NCC3CCCO3)cc(=O)c(C)c1-2 (centres unmarked) [Compound 10, 8,9-dimethoxy-1-methyl-4-(tetrahydrofuran-2-ylmethylamino)-6,7-dihydrobenzo[a]quinolizin-2-one] |  |  | 
6 | 100 to 500 | 100 to 500 | *** (>80%) | *** (>80%) | *** (>80%) | *** (>80%) | *** (>80%) | *** (>80%) | *** (>80%) | *** (>80%) | COc1ccc2c(c1OC)CCn1c(OC[C@@H]3COCCO3)cc(=O)c(C)c1-2 [Compound 12, 4-[[(2S)-1,4-dioxan-2-yl]methoxy]-8,9-dimethoxy-1-methyl-6,7-dihydrobenzo[a]quinolizin-2-one] |  |  | 
7 | 0.01 to 100 | 0.01 to 100 | *** (>80%) | *** (>80%) | *** (>80%) | *** (>80%) | *** (>80%) | *** (>80%) | *** (>80%) | *** (>80%) | Cc1c2n(c(OC[C@@H]3COCCO3)cc1=O)CCc1cc(OCC(F)(F)F)ccc1-2 [Compound 18, 4-[[(2S)-1,4-dioxan-2-yl]methoxy]-1-methyl-9-(2,2,2-trifluoroethoxy)-6,7-dihydrobenzo[a]quinolizin-2-one] |  |  | 
8 |  |  |  |  |  |  |  |  |  |  | CCCCCCCCCC(=O)O [capric acid] |  |  | dose dependently increased
9 |  |  |  |  |  |  |  |  |  |  | CCCCCCCCCCCC(=O)O [lauric acid] |  |  | dose dependently increased
10 |  |  |  |  |  |  |  |  |  |  | CCCCCCCCCCC(=O)O [undecanoic acid] |  |  | dose dependently increased

Source: US10568879B2 (GALAPAGOS NV, priority 2015, dated 2020)
